For one assay, the target named is PKR(G332S) (Homo sapiens, UniProt P30613, G332S). Nature of the assay: Luminescence Biochemical Assay (Kinase Glo Plus), PKR G332S. Particulars: with FBP (30 μM); for AC50: read-out: A—AC50 LUM KGP FBP AC50 μM gmean. As for the experimental part:
(§1) In some embodiments, a PKR Activating Compound refers to a compound having one or more characteristics when tested according to the following Luminescence Assay Protocol of Example 3 performed with wild type (wt) PKR and/or any one or more of G332S mutant form of PKR or R510Q mutant form of PKR: (1) an AC50 value of less than 40 μM (e.g., compounds with AC50 values of “+”, “++”, or “+++” in Table 2); (2) a maximum % Fold (MAX % Fold) value of greater than 75%; and/or (3) a % Fold value at 1.54 μM compound concentration (% Fold@1.54 μM) of at least 75%. In some embodiments, a PKR Activating Compound can have: (1) an AC50 value of less than 0.1 μM (e.g., compounds with AC50 values of “+++” in Table 2), 0.1-1.0 μM (e.g., compounds with AC50 values of “++” in Table 2), or 1.01-40 μM (e.g., compounds with AC50 values of “+” in Table 2); (2) a MAX % Fold of 75%-250%, 250-500%, or 75%-500%; and/or (3) a % Fold@1.54 μM of 75%-250%, 250-500%, or 75%-500%. In some embodiments, a PKR Activating Compound has (1) an AC50 value of less than 1.0 μM; (2) a MAX % Fold of 75%-500%; and/or (3) a % Fold@1.54 μM of 75%-500%.
(§2) The phosphorylation of Adenosine-5′-diphosphate (ADP) by various mutants of PKR was determined by the Kinase Glo Plus Assay (Promega) in the presence or absence of FBP [D-Fructose-1,6-diphosphate; BOC Sciences, CAS: 81028-91-3] as follows. Unless otherwise indicated, all reagents were purchased from Sigma-Aldrich. All reagents were prepared in buffer containing 50 mM Tris-HCl, 100 mM KCl, 5 mM MgCl2, and 0.01% Triton X100, 0.03% BSA, and 1 mM DTT. Enzyme and PEP [Phospho(enol) pyruvic acid] were added at 2× to all wells of an assay-ready plate containing serial dilutions of test compounds or DMSO vehicle. Final enzyme concentrations for PKR(wt), PKR(R510Q), and PKR(G332S) were 0.8 nM, 0.8 nM, and 10 nM respectively. Final PEP concentration was 100 μM. The Enzyme/PEP mixture was incubated with compounds for 30 minutes at RT before the assay was initiated with the addition of 2×ADP [Adenosine-5′-diphosphate] and KinaseGloPlus. Final concentration of ADP was 100 μM. […] For assays containing FBP, that reagent is added at 30 μM upon reaction initiation. Reactions were allowed to progress for 45 minutes at RT until luminescence was recorded by the BMG PHERAstar FS Multilabel Reader. All compounds were tested in triplicate at concentrations ranging from 42.5 μM to 2.2 nM in 0.83% DMSO.
Luminescence values were converted to % Fold increase by normalizing to the average of the DMSO control and multiplying by 100. Max, min, slope and AC50 were determined by the standard four parameter fit algorithm of ActivityBase XE Runner. Compounds were evaluated with three parameters—AC50, MAX % Fold, and % Fold@1.54 μM (FIG. 1). […]

In a further assay the target is PKR(R510Q) (Homo sapiens, UniProt P30613, R510Q). Briefly: Luminescence Biochemical Assay (Kinase Glo Plus), PKR R510Q. Particulars: without FBP; for AC50: read-out: D—AC50 LUM KGP woFBP AC50 μM gmean. As for the experimental part:
as §1, §2
Luminescence values were converted to % Fold increase by normalizing to the average of the DMSO control and multiplying by 100. Max, min, slope and AC50 were determined by the standard four parameter fit algorithm of ActivityBase XE Runner. Compounds were evaluated with three parameters—AC50, MAX % Fold, and % Fold@1.54 μM (FIG. 1). The AC50 value for a compound is the concentration (μM) corresponding to the midway between the maximum and minimum values of the four parameter logistic curve fit (i.e., at which the % fold increase along the four parameter logistic curve fit is halfway between MAX % Fold and MIN % Fold (% Fold Midpoint)), MAX % Fold is the highest fold increase observed at any concentration of compound, and % Fold@1.54 μM is the fold increase at a compound concentration of 1.54 μM. The parameter % Fold@1.54 μM was selected to capture elements of both the AC50 and MAX % Fold and to provide a ranking based on both potency and effect. […]
In general terms: Kinase-Glo measures the ATP left after a reaction by luminescence.

Another assay has as its target PKR(wt) (Homo sapiens, UniProt P30613). Briefly: Luminescence Biochemical Assay (Kinase Glo Plus), wild type PKR. To be noted: without FBP; for AC50: read-out: G—AC50 LUM KGP woFBP AC50 μM gmean. As for the experimental part:
as §1, §2
Luminescence values were converted to % Fold increase by normalizing to the average of the DMSO control and multiplying by 100. Max, min, slope and AC50 were determined by the standard four parameter fit algorithm of ActivityBase XE Runner. Compounds were evaluated with three parameters—AC50, MAX % Fold, and % Fold@1.54 μM (FIG. 1). The AC50 value for a compound is the concentration (μM) corresponding to the midway between the maximum and minimum values of the four parameter logistic curve fit (i.e., at which the % fold increase along the four parameter logistic curve fit is halfway between MAX % Fold and MIN % Fold (% Fold Midpoint)), MAX % Fold is the highest fold increase observed at any concentration of compound, and % Fold@1.54 μM is the fold increase at a compound concentration of 1.54 μM. The parameter % Fold@1.54 μM was selected to capture elements of both the AC50 and MAX % Fold and to provide a ranking based on both potency and effect. The compound concentration of 1.54 μM was chosen as one that can optimally differentiate the set of compounds based on the range of activities observed.
As set forth in Table 2 below, AC50 values (columns A, D, G) are defined as follows: ≤0.1 μM (+++); >0.1 μM and ≤1.0 μM (++); >1.0 μM and ≤40 μM (+); >40 μM (0). Max % FOLD values (columns B, E, H) are defined as follows: ≤75% (+); >75% and ≤250% (++); >250% and ≤500% (+++). % Fold@1.54 μM values (columns C, F, J) are defined as follows: ≤75% (+); >75% and ≤250% (++); >250% and ≤500% (+++).

Here are results for eight molecules from US11001588B2, “Activating pyruvate kinase R and mutants thereof” (FORMA Therapeutics, Inc., priority 2018, dated 2021).

Some results are limits rather than exact numbers.

PKR(wt), sequence (P30613 whole entry): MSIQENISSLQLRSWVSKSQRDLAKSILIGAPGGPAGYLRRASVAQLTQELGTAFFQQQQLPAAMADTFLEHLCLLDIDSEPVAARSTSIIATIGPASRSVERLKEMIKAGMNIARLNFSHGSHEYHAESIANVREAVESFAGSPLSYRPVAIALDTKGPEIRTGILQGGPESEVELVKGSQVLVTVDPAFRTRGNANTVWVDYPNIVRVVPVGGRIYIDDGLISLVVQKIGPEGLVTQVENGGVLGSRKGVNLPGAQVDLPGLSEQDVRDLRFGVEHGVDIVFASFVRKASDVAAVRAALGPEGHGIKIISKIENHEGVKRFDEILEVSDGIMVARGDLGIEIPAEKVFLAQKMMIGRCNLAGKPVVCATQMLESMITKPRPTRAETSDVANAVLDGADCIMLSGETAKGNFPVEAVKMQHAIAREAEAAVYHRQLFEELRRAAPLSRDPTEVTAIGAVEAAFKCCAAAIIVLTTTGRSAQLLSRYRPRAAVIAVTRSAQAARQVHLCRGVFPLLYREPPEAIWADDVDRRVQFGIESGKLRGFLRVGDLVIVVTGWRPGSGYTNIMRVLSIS
PKR(G332S), sequence (P30613 whole entry G332S): as the sequence (P30613 whole entry) above, with G332S counted along it
PKR(R510Q), sequence (P30613 whole entry R510Q): as the sequence (P30613 whole entry) above, with R510Q counted along it

Broadly, the AC50 is the concentration giving half of the maximal activity seen. With `O=C([C@H](O)c1ccccc1)N1CC2=C(C1)CN(S(=O)(=O)c1ccccn1)C2` [Compound 1, (2R)-2-hydroxy-2-phenyl-1-[5-(pyridine-2-sulfonyl)-1H,2H,3H,4H, 5H,6H-pyrrolo[3,4-c]pyrrol-2-yl]ethan-1-one], the “B—AC50 LUM KGP FBP MAX % FOLD mean” value on PKR(G332S) is “++ (>75% and ≤250% (++))”. On PKR(G332S) (1.54 μM compound), the “C—AC50 LUM KGP FBP % Fold@1.54 μM mean” value is “++ (>75% and ≤250% (++))”. For the same molecule, the “E—AC50 LUM KGP woFBP MAX % FOLD mean” value at PKR(R510Q) is “+++ (>250% and ≤500% (+++))”. Further, the “F—AC50 LUM KGP woFBP % Fold@1.54 μM mean” value at PKR(R510Q) (1.54 μM compound) was “++ (>75% and ≤250% (++))”. In addition, on PKR(wt), the “H—AC50 LUM KGP woFBP MAX % FOLD mean” value is “++ (>75% and ≤250% (++))”; the AC50 was not above 0.1 µM. In addition, the “J—AC50 LUM KGP woFBP % Fold@1.54 μM mean” value at PKR(wt) (1.54 μM compound) is “++ (>75% and ≤250% (++))”.

Regarding `Cc1nc2ccc(S(=O)(=O)N3CC4=C(CN(C(=O)Cc5ccc(Cl)cc5)C4)C3)cc2s1` [Compound 24], on PKR(R510Q), the concentration at half-maximal activity (AC50) was in the range of 1 to 40 µM.

For the molecule `C[C@@H](C(=O)N1CC2=C(C1)CN(S(=O)(=O)c1c[nH]c3c(Cl)nccc13)C2)c1ccccc1` [Compound 25], the AC50 at PKR(G332S) and on PKR(R510Q) was 1 to 40 µM each time.

In the case of `CN1CCOc2ccc(S(=O)(=O)N3CC4=C(CN(C(=O)CC5CCOCC5)C4)C3)cc21` [Compound 26], the AC50 on PKR(wt) was in the range of 1 to 40 µM.

As for `Cc1nn(C(C)C(=O)N2CC3=C(C2)CN(S(=O)(=O)c2ccc4occc4c2)C3)cc1Cl` (centres unmarked) [Compound 27], the AC50 on PKR(wt) was 1 to 40 µM.

With `O=C(CC1CCS(=O)(=O)CC1)N1CC2=C(C1)CN(S(=O)(=O)c1ccc3occc3c1)C2` [Compound 28], the AC50 on PKR(wt) is 1 to 40 µM.

For the molecule `CC(=O)N1CCOc2ccc(S(=O)(=O)N3CC4=C(CN(C(=O)C(C)c5ccc(F)cc5)C4)C3)cc21` (centres unmarked) [Compound 29], the AC50 on PKR(wt) was 1 to 40 µM.

As for `CN1CCOc2ccc(S(=O)(=O)N3CC4=C(CN(C(=O)C5(c6cccc(F)c6)CC5)C4)C3)cc21` [Compound 30], the AC50 at PKR(G332S), at PKR(R510Q) and on PKR(wt) was 1 to 40 µM in each case.
